{"source": "patent US20220008401A1", "about": "“COMPOSITIONS AND METHODS FOR TREATING PULMONARY DISEASE WITH MATRIX METALLOPROTEINASE INHIBITORS” (DARSHA LLC, priority 2019, published 2022)", "key": {"[1]": {"tested_on": "neutrophils", "test": "Neutrophil influx: myeloperoxidase staining and BALF differential cell counts, LPS-injured mice, q6h x 4 doses", "format": "in vivo", "protocol": "Mice were nasally instilled with LPS followed by treatment with CGS every 6 hours for 4 doses. Mice were sacrificed 6 hours after the 4th dose of Compound 1 and lungs and BALF were collected for analysis. Paraffin embedded lung sections ([…]) were stained for myeloperoxidase, a neutrophil marker, followed by detection using DAB, to assess parenchymal neutrophil infiltration.\nDifferential cell counts were taken from each animal's cytospin with at least 3 separate images counted."}, "[2]": {"tested_on": "human neutrophils", "test": "Human neutrophil migration in modified Boyden chamber (FMLP chemoattractant)", "format": "cell-based", "settings": "for neutrophil migration into the basal chamber: 1 hour", "protocol": "To determine if this effect was relevant in humans we utilized a modified Boyden chamber to assess the effect of Compound 1 on migration of human neutrophils. […] The basal chamber was filled with media containing the chemoattractant N-Formylmethionyl-leucyl-phenylalanine (FMLP) or vehicle. The apical chamber was seeded with ˜100,000 neutrophils with the addition of Compound 1 or vehicle. In the basal chamber, the neutrophils were allowed to migrate for 1 hour after which the basal chamber was fixed, stained with DAPI, and photographed. Five fields per well were imaged and the number of neutrophils counted using NIH ImageJ."}}, "data": [{"substance": "butanamide, N-hydroxy-2-[[(4-hydroxyphenyl)sulfonyl](3-pyridinylmethyl)amino]-3-methyl, hydrochloride, (2R) [Compound 1]", "values": [{"measurement": "overall inflammatory cell count in BALF", "setting": "[1]; LPS then every 6 hours for 4 doses, n≥4 (LPS only 8.0e6±5.7e6)", "result": "8.6e5±3.7e5", "unit": "cells/mL"}, {"measurement": "parenchymal neutrophil infiltration (myeloperoxidase staining)", "setting": "[1]; LPS then every 6 hours for 4 doses, sacrifice 6 hours after 4th dose", "result": "qualitatively reduced parenchymal neutrophil infiltration"}, {"measurement": "neutrophil count within the BALF", "setting": "[1]; LPS-CGS group, every 6 hours for 4 doses, n≥5 (LPS-PBS 8.0e6±5.7e6)", "result": "2.4e6±1.2e6", "unit": "cells/ml"}, {"measurement": "neutrophil migration into the basal chamber", "setting": "[2]; 10 nm CGS, no FMLP, n=4", "result": "233±61", "unit": "cells"}, {"measurement": "neutrophil migration into the basal chamber", "setting": "[2]; 20 nm CGS, no FMLP, n=4", "result": "293±148", "unit": "cells"}, {"measurement": "inhibition of FMLP-induced neutrophil migration", "setting": "[2]; FMLP + 10 nm Compound 1", "result": "did not achieve significance"}, {"measurement": "neutrophil migration into the basal chamber", "setting": "[2]; FMLP+20 nm CGS, n=4 (FMLP alone 4280±480)", "result": "2819±362", "unit": "cells"}]}]}
